Measured values from publication PMC7760777 (Microorganisms, 2020).
Entries after “also recorded” stand apart in the source; their conditions may differ. Read-outs that look alike come from different tables or passages of the source.

Experiments:
[1] = system: SARS-CoV-2; assay: microbe, parasite or virus in culture; conditions: Severe acute respiratory syndrome coronavirus 2, Vero C1008, 24 h
[2] = system: SARS-CoV-2; conditions: Vero E6 cells; for inhibition of SARS-CoV-2 in compound dilution series: 4 µM to 0.062 µM, 24 h post-infection
[3] = system: SARS-CoV-2; assay: Survival screen: SARS-CoV-2-induced CPE, crystal violet staining; format: cell-based; conditions: Vero E6 cells, 1 µM, 2 h pretreatment, MOI 0.01, 48 h
Description: Vero E6 cells were seeded in 96-well clear bottom, black wall plates (Costar, Tewksbury, MA, USA), at a density of 20,000 cells per well, one day prior to the experiment. Cells were pretreated for 2 h with 1 µM of each compound contained in the PRB. Remdesivir, K22 [17], and vehicle controls (DMSO) were included in each plate. Subsequently, cells were infected with SARS-CoV-2 at a multiplicity of infection (MOI) of 0.01 in compound-containing medium and incubated at 37 °C in a humidified incubator with 5% CO2. Uninfected (mock) controls were included in each plate. At 48 h post-infection (hpi), cells were fixed with 4% (v/v) neutral buffered formalin (Formafix AG, Hittnau, Switzerland) and stained with crystal violet. Cell viability and cytotoxicity were assessed in parallel, in identically treated, uninfected plates. […]
To identify potential antiviral compounds against SARS-CoV-2 replication, 201 antibacterial, 46 antifungal and 153 antiviral molecules included in the PRB were screened using a conservative concentration of 1 µM. […] Cell survival was scored from 0 (virus-induced cytopathogenic effects; CPE) to 1 (no CPE), upon evaluation of SARS-CoV-2-induced CPE using crystal violet staining (Figure 1A). The cytotoxicity and cell viability were assessed on uninfected plates processed in parallel, to exclude detrimental effects of the compounds on the cells. […]

[4] = CellTiter-Glo 2.0 cell viability assay on Vero E6 cells; conditions: African green monkey, Vero E6 cells (uninfected)
[5] = CellTox green cytotoxicity assay on Vero E6 cells; conditions: African green monkey, Vero E6 cells (uninfected)
[6] = CC50 determination on Calu-3 cells (cell viability); conditions: human
[7] = system: SARS-CoV-2; assay: in vitro
[8] = in vitro; conditions: African green monkey
[9] = system: Vero E6 cells; assay: CellTiter-Glo 2.0 cell viability assay on Vero E6 cells; conditions: Vero E6 cells, uninfected plates, 48 h
[10] = in vitro; conditions: African green monkey; remark: listed apart in the source
[11] = system: SARS-CoV-2; assay: microbe, parasite or virus in culture; format: cell-based; conditions: Severe acute respiratory syndrome coronavirus 2; Calu-3 cells, percentage of virus-infected cells, 2 h pretreatment, fixed 48 h post-infection
[12] = system: Vero E6 cells; assay: CellTox green cytotoxicity assay on Vero E6 cells; conditions: Vero E6 cells, uninfected plates, 48 h
[13] = system: SARS-CoV-2; assay: Time-of-addition experiment in Vero E6 cells; format: cell-based; conditions: 10 μM
[14] = system: SARS-CoV-2; format: cell-based; conditions: Vero E6 supernatants, dose-dependent, TCID50
[15] = Selective Index (SI), CC50 divided by EC50, Vero E6 cells

| SMILES | EC90 [1] [µM] | inhibition of SARS-CoV-2 in compound dilution series [2] | CC50 at 48 h [4] [µM] | CC50 at 48 h [5] [µM] | CC50 at 48 h [6] [µM] | other results |
| --- | --- | --- | --- | --- | --- | --- |
| CCN(CC)CCCC(C)Nc1ccnc2cc(Cl)ccc12 (centres unmarked) [Chloroquine] | 10.4 | inhibited SARS-CoV-2 in a dose-dependent manner | – | – | – | – |
| O=C(N/C(=C\c1ccccc1)C(=O)N1CCC(O)(c2ccc(Br)cc2)CC1)c1ccccc1 [K22] | – | – | – | – | – | inhibition of SARS-CoV-2-induced CPE in the survival screen [3]: did not show any inhibitory activity; also recorded: did not inhibit SARS-CoV-2 infection |
| CCCCCCCCCN1C[C@H](O)[C@@H](O)[C@H](O)[C@H]1CO [NN-DNJ, N-Nonyl Deoxynojirimycin] | – | inhibited SARS-CoV-2 in a dose-dependent manner | > 100 | > 100 | > 100 | – |
| Cc1ccc(C)c(OCCCCCCN2C[C@H](O)[C@@H](O)[C@H](O)[C@H]2CO)c1 [PBDNJ0803] | – | inhibited SARS-CoV-2 in a dose-dependent manner | > 100 | > 100 | > 100 | – |
| CCC(CC)COC(=O)[C@H](C)N[P@](=O)(OC[C@H]1O[C@@](C#N)(c2ccc3c(N)ncnn23)[C@H](O)[C@@H]1O)Oc1ccccc1 [Remdesivir] | 3.39 | – | – | – | – | selectivity ratio [7, 15]: > 73.8; CC50 [8]: > 100 µM; influence on cell viability in the screen [9]: did not influence; CC50 [10]: > 100 µM; Selective Index (SI), CC50 divided by EC50 [2]: > 73.85; EC50 [11]: 0.17 µM; influence on cell cytotoxicity in the screen [12]: did not influence cell cytotoxicity |
| Cc1nc(-c2ccc([C@@H]3N(C)c4ccc(F)cc4C(=O)N3c3ccccc3)s2)cs1 [Retro-2.1] | 1.03 | inhibited SARS-CoV-2 in a dose-dependent manner | > 100 | > 100 | > 100 | selectivity ratio [7]: > 239; inhibitory effect on SARS-CoV-2-infected cells, treatment after infection (condition 3) ([13]; MOI 0.01, 24 h post-infection): most pronounced inhibitory effect; inhibitory effect on SARS-CoV-2-infected cells, treatment during infection (condition 2) ([13]; MOI 0.01, 24 h post-infection): more pronounced inhibition; inhibitory effect on SARS-CoV-2-infected cells, treatment prior to infection (condition 1) ([13]; MOI 0.01, 24 h post-infection): only a marginal reduction; reduction in viral titer, treatment after infection (condition 3) ([13]; supernatant at 24 h post-infection): > 1000 fold; reduction in viral titer [14]: strongest reduction; EC50 [11]: 0.08 µM |
| CN1CCN(Cc2ccc(-c3cnc4[nH]cc(-c5ccc6[nH]ccc6c5)c4c3)cc2)CC1 [URMC-099-C] | 1.83 | inhibited SARS-CoV-2 in a dose-dependent manner | 14.7 | 24.9 | 15.5 | selectivity ratio [7, 15]: 50.7; Selective Index (SI), CC50 divided by EC50 [2]: 50.69 |
